Data on 10 molecules can be found in patent US12448388B2, “PRMT5 inhibitors and uses thereof” (Gilead Sciences, Inc., priority 2023, dated 2025).

SMILES strings stand for the structures. In brackets after ≈: the same amount, converted by molar mass. Read-outs that look alike come from different tables or passages of the source. A value given as a limit tells only on which side of the number the result lay.

The nature of data set [1]: Hepatocyte stability assay, human. In kind it is in vitro ADME. The settings on record: human hepatocytes, 1 μM. As to the method: BioreclamationIVT (Baltimore, MD) provided the cryopreserved hepatocytes, hepatocyte thawing (HT) medium, and Krebs-Henseleit buffer (KHB) medium. The stock solution concentration was 1 M in DMSO and was then diluted further in acetonitrile/water (1:1 v/v). All other chemicals were purchased from Sigma-Aldrich (St. Louis, MO) or Thermo Fisher Scientific (Waltham, MA).
The quench solution used to stop reactions in the hepatocyte incubations was comprised of 100% (v/v) acetonitrile. Internal Standard/Quench (IS/Q) solution used to stop reactions with the positive control also contained 200 nM Labetalol.
Metabolic Stability in Cryopreserved Hepatocytes: Test compounds, or the positive control metabolic substrate, was incubated in suspensions of cryopreserved hepatocytes at a final concentration of 1 μM. Vials containing cryopreserved hepatocytes were removed from liquid nitrogen and immediately immersed in a 37° C. water bath. The vials were swirled gently until the contents had thawed. They were then immediately emptied into 48 mL of pre-warmed thawing medium in a 50 mL conical tube. Cells remaining in the vial were re-suspended with 1.0 mL of pre-warmed thawing medium and added to the conical tube. The tube was capped and then gently inverted several times to re-suspend the hepatocytes. The cell suspension was centrifuged at 500×g for 10 minutes at room temperature and the supernatant discarded. The cell pellet was loosened by gently swirling the centrifuge tube. Non-supplemented KHB medium was added to obtain the appropriate target cell density. The viabilities of all cell preparations were ≥85%, assessed by Trypan blue dye exclusion.
For incubations, aliquots of hepatocyte suspension (250 μL containing a cell concentration of 2×10^6 cells/mL) were added to 250 μL of 2 μM substrate (test compound or positive control) in supplemented KHB in duplicate wells in a 24-well plate. Final concentration in the incubations were 1×10^6 cells/mL and 1 μM substrate. A cell-free control incubation (KHB only) was also included. The incubations were carried out with gentle shaking in a 37° C. incubator under a humid atmosphere of 95% air/5% CO2 (v/v). Aliquots (100 μL) were removed after 0, 1, 3, and 6 hours and added to 200 μL quenching solution. The samples were then placed on a shaker for 10 min followed by centrifugation at 3000×g for 20 min. The supernatant was transferred to a new plate and diluted with 100 μL of water to reduce the organic content and then placed on a shaker for 10 mins. Samples were injected and analyzed with methods described below.
Liquid Chromatography: Quantification of positive control and test compound was performed by analyte/internal standard peak area ratios (PAR) measured on a Thermo Scientific™ Q Exactive™ Hybrid Quadrupole-Orbitrap Mass Spectrometer MS/MS with an electrospray interface operating in positive ion mode. The mass spectrometer was coupled to a Dionex Ultimate® 3000 HPLC system. Samples (10 μL aliquots) were injected with a Leap Technologies HTC PAL autosampler. For positive control, the column used was a Thermo Scientific™ Hypersil GOLD™ HPLC column ([…], 50×2.1 mm). Mobile phase A consisted of 95% (v/v) water, 5% (v/v) acetonitrile, and contained 0.1% (v/v) formic acid (FA). Mobile phase B consisted of 95% (v/v) acetonitrile, 5% (v/v) water, and contained 0.1% (v/v) FA. Elution was achieved, at a flow rate of 0.5 mL/min, by a series of linear gradients: initial condition was 5% B at 0 min, isocratic for 20 seconds; then linear gradient to 95% B over 90 seconds, followed by isocratic for 60 seconds at 95% B, and re-equilibrated to initial conditions over 70 seconds.
Metabolic stabilities of positive control and test compound were determined by measuring the rates of disappearance of the parent with time by determining the % of parent remaining at time t (Ct) {Obach 1997}.
Data (% of parent remaining) were plotted on a semi-log scale and fitted using an exponential fit: […]

The nature of data set [2]: PBS solubility (kinetic solubility from DMSO stocks). The settings on record: 22 °C, aqueous buffer, kinetic from dmso stock; 1x PBS pH 7.4, 1.0% DMSO, 24-hour incubation at ambient temperature. In kind it is physicochemical. In outline:
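Kinetic solubility in 1× PBS pH 7.4 with 1.0% final DMSO, maximum theoretical concentration 100 μM from 10 mM stock. After 24 h at ambient temperature (20.8-24.0 °C) the samples were vacuum-filtered and filtrates quantified by nitrogen detection against a calibration curve. Values were background-corrected and reported in μM and μg/mL.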

The nature of data set [3]: Pharmacokinetics in cassette in male Sprague-Dawley rats for Kp measurement. It counts as in vivo. The settings on record: 1 mg/kg, intravenous. As to the method:
E.1 Test Animal: Male Sprague-Dawley Rats (225-300 g) with Indwelling Bilateral Jugular Vain Cannula (JVC/JVC) or Single Jugular Vein Cannula (JVC)
E.2 Pharmaceutical Formulation and Administration
Test compound was dissolved in the vehicle of 10% DMSO, 10% ethanol, 40% polyethylene glycol 300, and 40% propylene glycol to get 1 mg/mL test compound solution. The compound was administered by intravenous administration at a dose of 1 mL/kg. Fasting was not required.
• Anticoagulant: K2EDTA • Volume: approximately 225 μL blood at each bleed • Jugula vein via syringe and needle or another method (non-terminal samples) or exsanguination (cardiac puncture) under isoflurane (or CO2 inhalation if isoflurane is unavailable) anesthesia (terminal time points). Blood samples were collected into K2EDTA tubes • Tissue collection and processing: following the terminal blood collection, the brain and CSF were collected from each animal.

Setting [4] is: brain Kp = [brain]/[plasma], rat, read-out: Rat brain Kp.
[5] abbreviates: brain Kpu,u = Kp * (plasma free/rat brain free), read-out: Rat brain Kpu,u.

As for `C[C@H]1CN(C(=O)c2cc3c(cc2F)nc(N)c2cncn23)[C@H]2c3ccc(C(F)(F)F)cc3C[C@H]2O1` (single isomer, unassigned) [Ff-81], the “Human Predicted Hepatocyte CL” value in data set [1] is 3 mL/min/kg. Further, the solubility at 24 h in data set [2] came to 18.5 µM (≈ 8.98 µg/mL). In addition, the results for the Kp in data set [3] (setting [4]) and in data set [3] (setting [5]) were 0.17 and 0.04, respectively.

Consider `Nc1nc2cc(F)c(C(=O)N3CCO[C@@H]4Cc5cc(C(F)(F)F)ccc5[C@@H]43)cc2n2cncc12` (single isomer, unassigned) [Ff-82], for which, in data set [1], the “Human Predicted Hepatocyte CL” value is 4.33 mL/min/kg. The solubility at 24 h in data set [2] turned out to be 17.9 µM (≈ 8.44 µg/mL). Moreover, the figures for the Kp in data set [3] (setting [4]) and in data set [3] (setting [5]) were 0.15 and 0.02, respectively.

On to `C[C@H]1CN(C(=O)c2cc3c(cc2F)nc(N)c2cncn23)[C@H]2c3cc(F)c(C(F)F)cc3C[C@H]2O1` (single isomer, unassigned) [Ff-173], for which, in data set [1], the “Human Predicted Hepatocyte CL” value is 3 mL/min/kg. In data set [2], the concentration in solution (solubility at 24 h) came to 9.9 µM (≈ 4.81 µg/mL). Further, the Kp in data set [3] (setting [4]) stood at 0.12; in data set [3] (setting [5]), 0.03.

As to `C[C@@H]1CN(C(=O)c2cc3c(cc2F)nc(N)c2cncn23)[C@H]2c3ccc(OC(F)(F)F)cc3C[C@H]2O1` (single isomer, unassigned) [Ff-183], in data set [1], the “Human Predicted Hepatocyte CL” value was 3 mL/min/kg. In data set [2], this molecule came in with a solubility at 24 h of 1.6 µM (≈ 0.802 µg/mL). Also, the Kp in data set [3] (setting [4]) was 0.41; in data set [3] (setting [5]), 0.06.

Turning to `C[C@@H]1CN(C(=O)c2cc3c(cc2F)nc(N)c2cncn23)[C@H]2c3cc(F)c(OC(F)(F)F)cc3C[C@H]2O1` (single isomer, unassigned) [Ff-197], the “Human Predicted Hepatocyte CL” value in data set [1] was 4.17 mL/min/kg. In addition, the solubility at 24 h in data set [2] was less than 1 µM. Further, the values for the Kp in data set [3] (setting [4]) and in data set [3] (setting [5]) were 0.22 and 0.06, respectively.

Regarding `Nc1nc2cnc(C(=O)N3CC[C@H]4C[C@@H]3c3c(F)cc(C(F)(F)F)cc3O4)cc2n2cncc12` (single isomer, unassigned) [Ff-694], in data set [1], the “Human Predicted Hepatocyte CL” value was 3.5 mL/min/kg. In addition, in data set [2], the solubility at 24 h was found to be 50.2 µM (≈ 23.7 µg/mL). Besides, in data set [3] (setting [4]), the Kp turned out to be 0.29.

Take `Nc1nc2cnc(C(=O)N3CC4(CC4)C[C@@H]4Oc5cc(C(F)(F)F)ccc5[C@@H]43)cc2n2cncc12` [Ff-648, (4-aminoimidazo[1,5-a]pyrido[3,4-e]pyrazin-8-yl)((4aS,9bS)-7-(trifluoromethyl)-4a,9b-dihydro-2H-spiro[benzofuro[3,2-b]pyridine-3,1′-cyclopropan]-1(4H)-yl)methanone]: the “Human Predicted Hepatocyte CL” value in data set [1] is 5.67 mL/min/kg. This molecule also had a solubility at 24 h in data set [2] of 5.1 µM (≈ 2.45 µg/mL).

In the case of `Nc1nc2cnc(C(=O)N3CC[C@H]4C[C@@H]3c3ccc(C(F)(F)F)c(F)c3O4)cc2n2cncc12` [Ff-684, (4-aminoimidazo[1,5-a]pyrido[3,4-e]pyrazin-8-yl)((2S,6R)-10-fluoro-9-(trifluoromethyl)-3,4-dihydro-2H-2,6-methanobenzo[b][1,5]oxazocin-5(6H)-yl)methanone], the “Human Predicted Hepatocyte CL” value in data set [1] was 2.67 mL/min/kg. The same molecule had a solubility at 24 h in data set [2] of 28.4 µM (≈ 13.4 µg/mL).

For `Nc1nc2cnc(C(=O)N3CC[C@H]4C[C@@H]3c3ccc(OC(F)(F)F)cc3O4)cc2n2cncc12` [Ff-685, (4-aminoimidazo[1,5-a]pyrido[3,4-e]pyrazin-8-yl)((2S,6R)-9-(trifluoromethoxy)-3,4-dihydro-2H-2,6-methanobenzo[b][1,5]oxazocin-5(6H)-yl)methanone], in data set [1], the “Human Predicted Hepatocyte CL” value was 4.83 mL/min/kg. The concentration in solution in data set [2] (solubility at 24 h) was 16.1 µM (≈ 7.57 µg/mL).

As for `[2H]C1([2H])CC[C@@H]2Oc3cc(C(F)(F)F)ccc3[C@@H]2N1C(=O)c1cc2c(cn1)nc(N)c1cncn12` [Fg-60, (4-aminoimidazo[1,5-a]pyrido[3,4-e]pyrazin-8-yl)((4aS,9bS)-7-(trifluoromethyl)-3,4,4a,9b-tetrahydrobenzofuro[3,2-b]pyridin-1(2H)-yl-2,2-d2)methanone], the “Human Predicted Hepatocyte CL” value in data set [1] is 3.5 mL/min/kg.
